# In US11492405B2, “Reducing systemic regulatory t cell levels or activity for treatment of disease and injury of the CNS” (Yeda Research and Development Co. Ltd, priority 2014, dated 2022):
# Entries after “also recorded” stand apart in the source; their conditions may differ.
# Key:
# [1] = system: 5XFAD AD-Tg mice; experiment: Aβ plaque quantitation (immunohistochemistry) in 5XFAD AD-Tg mice; assay type: in vivo, mouse
# Procedure: Tissue processing and immunohistochemistry were performed on paraffin embedded sectioned mouse (6 μm thick) and human (10 μm thick) brains. For human ICAM-1 staining, primary mouse anti-ICAM (1:20 Abcam; ab2213) antibody was used. Slides were incubated for 10 min with 3% H2O2, and a secondary biotin-conjugated anti-mouse antibody was used, followed by biotin/avidin amplification with Vectastain ABC kit (Vector Laboratories). Subsequently, 3,3′-diaminobenzidine (DAB substrate) (Zytomed kit) was applied; slides were dehydrated and mounted with xylene-based mounting solution. For tissue stainings, mice were transcardially perfused with PBS prior to tissue excision and fixation. CP tissues were isolated under a dissecting microscope (Stemi DV4; Zeiss) from the lateral, third, and fourth ventricles of the brain. For whole mount CP staining, tissues were fixated with 2.5% paraformaldehyde (PFA) for 1 hour at 4° C., and subsequently transferred to PBS containing 0.05% sodium azide. Prior to staining, the dissected tissues were washed with PBS and blocked (20% horse serum, 0.3% Triton X-100, and PBS) for 1 h at room temperature. Whole mount staining with primary antibodies (in PBS containing 2% horse serum and 0.3% Triton X-100), or secondary antibodies, was performed for 1 h at room temperature. Each step was followed by three washes in PBS. The tissues were applied to slides, mounted with Immu-mount (9990402, from Thermo Scientific), and sealed with cover-slips. For staining of sectioned brains, two different tissue preparation protocols (paraffin embedded or microtomed free-floating sections) were applied, as previously described (Baruch et al, 2013; Kunis et al, 2013). […] Microscopic analysis, was performed using a fluorescence microscope (E800; Nikon) or laser-scanning confocal microscope (Carl Zeiss, Inc.). The fluorescence microscope was equipped with a digital camera (DXM 1200F; Nikon), and with either a 20×NA 0.50 or 40×NA 0.75 objective lens (Plan Fluor; Nikon). […] For quantification of staining intensity, total cell and background staining was measured using ImageJ software (NIH), and intensity of specific staining was calculated, as previously described (Burgess et al, 2010). […]
# From each brain, 6 μm coronal slices were collected, and eight sections per mouse, from four different pre-determined depths throughout the region of interest (dentate gyrus or cerebral cortex) were immunostained. […]
# [2] = system: 5XFAD AD-Tg mice; experiment: Soluble Aβ (sAβ) ELISA of cerebral brain parenchyma in AD-Tg mice; assay type: in vivo, mouse
# Procedure: Inhibition of p300 in mice was performed similarly to previously described (Liu et al, 2013). p300i (C646; Tocris Bioscience) was dissolved in DMSO and injected i.p. daily (8.9 mg kg^−1 d^−1, i.p.) for 1 week. Vehicle-treated mice were similarly injected with DMSO.
# Tissue homogenization and sAβ protein extraction was performed as previously described (Schmidt et al, 2005). Briefly, cerebral brain parenchyma was dissected and snap-frozen and kept at −80° C. until homogenization. Proteins were sequentially extracted from samples to obtain separate fractions containing proteins of differing solubility. Samples were homogenized in 10 volumes of ice-cold tissue homogenization buffer, containing 250 mM of sucrose, 20 mM of Tris base, 1 mM of ethylenediaminetetraacetic acid (EDTA), and 1 mM of ethylene glycol tetraacetic acid (pH 7.4), using a ground glass pestle in a Dounce homogenizer. After six strokes, the homogenate was mixed 1:1 with 0.4% diethylamine (DEA) in a 100-mM NaCl solution before an additional six strokes, and then centrifuged at 135,000 g at 4° C. for 45 min. The supernatant (DEA-soluble fraction containing extracellular and cytosolic proteins) was collected and neutralized with 10% of 0.5M of Tris-HCl (pH 6.8). Aβ1-40 and Aβ1-42 were individually measured by enzyme-linked immunosorbent assay (ELISA) from the soluble fraction using commercially available kits (Biolegend; #SIG-38954 and #SIG-38956, respectively) according to the manufacturer instructions.
# [3] = molecular target: p300 (Mus musculus, UniProt B2RWS6); conditions: Liu et al, 2013; cited from earlier work
# [4] = system: aged mice (18 months); experiment: p300 inhibition in aged mice, flow cytometry of spleen and CP; assay type: in vivo, mouse; conditions: p300i 8.9 mg/kg/d i.p. for 1 week vs DMSO, examined a day after cessation
# Procedure: Mice were transcardially perfused with PBS, and tissues were treated as previously described (Baruch et al, 2013). Brains were dissected and the different brain regions were removed under a dissecting microscope (Stemi DV4; Zeiss) in PBS, and tissues were dissociated using the gentleMACS™ dissociator (Miltenyi Biotec). Choroid plexus tissues were isolated from the lateral, third and fourth ventricles of the brain, incubated at 37° C. for 45 min in PBS (with Ca^2+/Mg^2+) containing 400 U/ml collagenase type IV (Worthington Biochemical Corporation), and then manually homogenized by pipetting. Spleens were mashed with the plunger of a syringe and treated with ACK (ammonium chloride potassium) lysing buffer to remove erythrocytes. In all cases, samples were stained according to the manufacturers' protocols. All samples were filtered through a 70 μm nylon mesh, and blocked with anti-Fc CD16/32 (1:100; BD Biosciences). For intracellular staining of IFN-γ, the cells were incubated with […] (10 ng/ml; Sigma-Aldrich) and ionomycin (250 ng/ml; Sigma-Aldrich) for 6 h, and Brefeldin-A (10 μg/ml; Sigma-Aldrich) was added for the last 4 h. Intracellular labeling of cytokines was done with BD Cytofix/Cytoperm™ Plus fixation/permeabilization kit (cat. no. 555028). […] Cells were analyzed on an LSRII cytometer (BD Biosciences) using FlowJo software. […]
# Sequence of p300 (B2RWS6 whole entry): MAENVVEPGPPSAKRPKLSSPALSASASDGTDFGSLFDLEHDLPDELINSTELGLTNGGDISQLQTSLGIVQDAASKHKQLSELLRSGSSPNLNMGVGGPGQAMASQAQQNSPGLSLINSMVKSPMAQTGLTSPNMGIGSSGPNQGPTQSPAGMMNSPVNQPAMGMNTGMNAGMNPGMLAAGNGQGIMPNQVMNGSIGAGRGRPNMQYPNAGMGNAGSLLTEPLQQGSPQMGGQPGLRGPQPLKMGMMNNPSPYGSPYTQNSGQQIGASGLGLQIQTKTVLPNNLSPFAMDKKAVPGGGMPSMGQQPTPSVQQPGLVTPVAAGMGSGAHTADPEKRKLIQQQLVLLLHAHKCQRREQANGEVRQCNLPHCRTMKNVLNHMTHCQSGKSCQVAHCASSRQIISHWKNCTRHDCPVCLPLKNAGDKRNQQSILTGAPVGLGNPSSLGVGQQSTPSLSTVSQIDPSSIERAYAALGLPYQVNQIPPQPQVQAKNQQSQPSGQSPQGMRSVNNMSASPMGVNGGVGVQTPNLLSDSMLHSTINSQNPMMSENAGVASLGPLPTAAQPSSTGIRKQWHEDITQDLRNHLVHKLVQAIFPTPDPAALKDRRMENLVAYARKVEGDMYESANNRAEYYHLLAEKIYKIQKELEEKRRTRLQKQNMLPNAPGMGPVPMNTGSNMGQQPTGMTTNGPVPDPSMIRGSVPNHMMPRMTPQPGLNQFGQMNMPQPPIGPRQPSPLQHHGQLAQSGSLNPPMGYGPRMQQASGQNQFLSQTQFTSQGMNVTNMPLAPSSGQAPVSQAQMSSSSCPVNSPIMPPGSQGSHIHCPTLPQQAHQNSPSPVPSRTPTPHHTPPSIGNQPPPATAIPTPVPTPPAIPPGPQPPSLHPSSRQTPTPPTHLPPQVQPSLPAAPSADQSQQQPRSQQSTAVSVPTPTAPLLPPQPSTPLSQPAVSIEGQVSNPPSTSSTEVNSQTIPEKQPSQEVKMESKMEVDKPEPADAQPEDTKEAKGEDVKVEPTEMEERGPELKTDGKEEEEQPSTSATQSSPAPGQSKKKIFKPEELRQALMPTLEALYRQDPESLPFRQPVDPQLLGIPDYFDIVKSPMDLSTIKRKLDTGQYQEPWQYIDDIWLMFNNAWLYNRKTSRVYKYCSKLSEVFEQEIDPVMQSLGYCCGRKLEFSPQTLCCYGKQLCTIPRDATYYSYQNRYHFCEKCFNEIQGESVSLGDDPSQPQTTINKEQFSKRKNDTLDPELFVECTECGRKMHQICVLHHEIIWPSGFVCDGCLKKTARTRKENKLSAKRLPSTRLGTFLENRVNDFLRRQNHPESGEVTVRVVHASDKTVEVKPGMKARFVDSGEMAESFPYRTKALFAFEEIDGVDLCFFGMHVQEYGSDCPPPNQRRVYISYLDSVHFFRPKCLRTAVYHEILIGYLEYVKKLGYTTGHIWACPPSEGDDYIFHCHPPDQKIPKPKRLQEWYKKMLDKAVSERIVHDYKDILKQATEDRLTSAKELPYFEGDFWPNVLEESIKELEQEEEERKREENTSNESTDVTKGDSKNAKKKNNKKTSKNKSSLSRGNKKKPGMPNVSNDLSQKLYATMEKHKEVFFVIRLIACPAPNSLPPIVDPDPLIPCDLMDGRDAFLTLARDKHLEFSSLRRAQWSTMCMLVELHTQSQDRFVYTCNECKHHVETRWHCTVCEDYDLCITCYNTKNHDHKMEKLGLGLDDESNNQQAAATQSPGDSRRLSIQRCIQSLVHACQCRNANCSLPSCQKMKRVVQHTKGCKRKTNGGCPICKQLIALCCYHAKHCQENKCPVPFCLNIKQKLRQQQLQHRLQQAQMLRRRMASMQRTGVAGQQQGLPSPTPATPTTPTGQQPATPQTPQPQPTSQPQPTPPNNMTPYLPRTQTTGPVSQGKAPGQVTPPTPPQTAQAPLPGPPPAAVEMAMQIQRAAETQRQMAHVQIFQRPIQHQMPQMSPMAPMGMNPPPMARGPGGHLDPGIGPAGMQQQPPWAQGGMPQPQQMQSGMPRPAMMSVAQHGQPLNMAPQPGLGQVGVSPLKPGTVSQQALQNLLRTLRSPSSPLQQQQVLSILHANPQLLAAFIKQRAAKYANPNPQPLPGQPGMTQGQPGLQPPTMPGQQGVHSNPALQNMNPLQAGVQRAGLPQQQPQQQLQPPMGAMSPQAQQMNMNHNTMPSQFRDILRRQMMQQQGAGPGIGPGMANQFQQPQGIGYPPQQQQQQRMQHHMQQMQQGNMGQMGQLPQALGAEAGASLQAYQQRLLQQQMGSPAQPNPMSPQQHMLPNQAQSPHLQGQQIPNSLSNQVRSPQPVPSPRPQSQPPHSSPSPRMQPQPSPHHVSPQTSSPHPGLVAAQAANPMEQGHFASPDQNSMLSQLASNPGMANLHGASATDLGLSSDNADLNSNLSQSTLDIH
smiles,measurement,setting,value
"CC1=NN(c2ccc(C(=O)O)cc2)C(=O)/C1=C\c1ccc(-c2cc(C)c(C)cc2[N+](=O)[O-])o1 [p300i, 4-(4-((5-(4,5-dimethyl-2-nitrophenyl)furan-2-yl)methylene)-3-methyl-5-oxo-4,5-dihydro-1H-pyrazol-1-yl)benzoic acid]",cerebral Aβ plaque load,"[1]; 10-month old AD-Tg mice, p300i for 1 week, examined 3 weeks later",significant reduction
same,reduction of cerebral plaque load,"[1]; single course of p300i, examined 2 months later",evident even two months after a single course of treatment
same,reduction of cerebral plaque load,"[1]; two courses of p300i with 1-month interval, compared with single course",stronger
same,cerebral sAβ (Aβ1-40/Aβ1-42) levels,[2]; one course of p300i,effective in reducing cerebral sAβ
same,effect on sAβ1-42,[2]; repeated courses of p300i compared with one course,stronger
same,cerebral sAβ (Aβ1-40/Aβ1-42) levels,[2]; two courses of p300i with interval of 1 month,effective in reducing cerebral sAβ
same,effect on Treg suppressive activities,[3],affect Treg suppressive activities while leaving protective T effector cell responses intact
same,IFN-γ-expressing cells in the CP,[4],elevated levels; also recorded: elevation
same,IFN-γ-expressing cells in the spleen,[4],elevated levels; also recorded: elevation
